Tested on: patients with moderate to severe chronic plaque psoriasis
Experiment: PASI response, Phase II 12-week placebo-controlled trial with 48-week extension
Assay type: in vivo, human
Conditions: for PASI 50 / PASI 90 / PASI 100: after 60 weeks of 40 mg eow; for patients with PASI<50 response, qualified for dosage escalation to weekly: on or after Week 24; for Number of Patients Who Qualified for Dosage Escalation: placebo/adalimumab 40 mg eow (n = 18)
Source text: Efficacy outcome measures included PASI and PGA.
The two primary clinical outcome measures used in this study were the psoriasis area and severity index (PASI) and the physician's global assessment (PGA). PASI improvement of greater than or equal to 75% (used as an endpoint in psoriasis clinical trials) at week 12 was the primary efficacy outcome measure for this study. PASI is a composite index indicating severity for three main signs of psoriatic plaques (erythema, scaling, and thickness), weighted by the amount of coverage of these plaques in four main body areas, i.e., head, trunk, upper extremities, and lower extremities. PASI scores, which range from 0-72, with higher scores indicating greater severity, were assessed at screening, baseline, week 1, week 2, week 4, week 8, week 12/early termination, and follow-up.
Skin and safety outcomes were assessed up to Week 60.
Analytical methods included the following: • Analyses of clinical data were performed on a modified intention-to-treat population (ITT). […] Patients whose dosages were increased on or after Week 24 were considered non-responders; • Patients with similar percentage PASI improvement across treatment arms were pooled into four strata: PASI<50, PASI 50-74, PASI 75-99, and PASI 100; and • Week-60 distribution of DLQI scores, mean DLQI scores, and mean change in DLQI from Week 0-60 were calculated within each stratum.
Frequently used as an endpoint in psoriasis clinical trials, the PASI [25] was the primary efficacy outcome in this trial. PASI is a composite index indicating the severity of the three main signs of psoriatic plaques (i.e., erythema, scaling, and thickness) and is weighted by the amount of coverage of these plaques in the four main body areas (head, trunk, upper extremities, and lower extremities). PASI scores range from 0-72, with higher scores indicating greater disease severity. PASI was assessed at screening and baseline, at Weeks 1, 2, 4, 8, and 12/Early Termination, and at the final follow-up visit.
At week 12, placebo patients received an 80-mg loading dose, then 40 mg every other week. […] Patients who receive the rescue therapy were considered non-responders in this analysis.

[1] = Week 60, adalimumab 40 mg weekly, modified ITT, NRI
[2] = Week 60, placebo/adalimumab 40 mg eow (adalimumab from Week 12), modified ITT, NRI
[3] = baseline PASI ≧10 and DLQI >10, 40 mg eow, Week 12
[4] = baseline PASI ≧10 and DLQI >10, 40 mg eow, Week 24
[5] = baseline PASI ≧10 and DLQI >10, 40 mg eow, Week 36
[6] = baseline PASI ≧10 and DLQI >10, 40 mg eow, Week 60
[7] = baseline PASI ≧10 and DLQI >10, 40 mg weekly, Week 12
[8] = baseline PASI ≧10 and DLQI >10, 40 mg weekly, Week 24
[9] = baseline PASI ≧10 and DLQI >10, 40 mg weekly, Week 36
[10] = baseline PASI ≧10 and DLQI >10, 40 mg weekly, Week 60
[11] = baseline PASI ≧10 and DLQI >10, placebo/adalimumab 40 mg eow, Week 24
[12] = baseline PASI ≧10 and DLQI >10, placebo/adalimumab 40 mg eow, Week 36
[13] = baseline PASI ≧10 and DLQI >10, placebo/adalimumab 40 mg eow, Week 60
[14] = dosage escalation group (eow to 40 mg weekly, n = 30), Week 60
[15] = placebo/adalimumab 40 mg eow, Week 60, modified ITT, NRI
[16] = weekly group, week 60, observed analysis

Substance: Adalimumab: a human anti-TNF mAb, described in U.S. Pat. No. 6,090,382 as D2E7 (HUMIRA, Abbott Laboratories)
- PASI 50 (% patients) [1]: 66%
- Percentage of patients who achieved PASI 75 [1]: 64%
- Percentage of patients who achieved PASI 90 [1]: 48%
- Percentage of patients who achieved PASI 100 (Week 60, placebo/adalimumab 40 mg eow (adalimumab from Week 12), NRI): 19%
- PASI 50 (% patients) [2]: 64%
- Percentage of patients who achieved PASI 75 [2]: 45%
- Percentage of patients who achieved PASI 90 [2]: 40%
- PASI 75 response rate [3]: 69 % of Patients
- PASI 90 response rate [3]: 39 % of Patients
- PASI 75 response rate [4]: 77 % of Patients
- PASI 90 response rate [4]: 54 % of Patients
- PASI 75 response rate [5]: 73 % of Patients
- PASI 90 response rate [5]: 58 % of Patients
- PASI 75 response rate [6]: 65 % of Patients
- PASI 90 response rate [6]: 42 % of Patients
- PASI 75 response rate [7]: 74 % of Patients
- PASI 90 response rate [7]: 61 % of Patients
- PASI 75 response rate [8]: 78 % of Patients
- PASI 90 response rate [8]: 70 % of Patients
- PASI 75 response rate [9]: 74 % of Patients
- PASI 90 response rate [9]: 65 % of Patients
- PASI 75 response rate [10]: 65 % of Patients
- PASI 90 response rate [10]: 48 % of Patients
- PASI 75 response rate [11]: 50 % of Patients
- PASI 90 response rate [11]: 28 % of Patients
- PASI 75 response rate [12]: 50 % of Patients
- PASI 90 response rate [12]: 50 % of Patients
- PASI 75 response rate [13]: 44 % of Patients
- PASI 90 response rate [13]: 39 % of Patients
- PASI 50 response rate [14]: 40%
- PASI 75 response rate [14]: ~20%
- PASI 90 response rate [14]: 0%
- PASI 75 response rate (dosage escalation group (eow to 40 mg weekly, n = 30), Week 60, listed as adalimumab): 17%
- PASI 50 response (eow arm, Week 24): 73
- PASI 75 response rate (no prior use, 40 mg eow, Week 24): 65 % Patients
- PASI 75 response rate (no prior use, 40 mg eow, Week 60): 48 % Patients
- PASI 75 response rate (no prior use, 40 mg weekly, Week 24): 76 % Patients
- PASI 75 response rate (no prior use, 40 mg weekly, Week 60): 64 % Patients
- PASI 50 (no prior use): 65%
- PASI 90 (no prior use): 30%
- PASI 100 (no prior use): 17%
- PASI 75 response rate (no prior use, placebo/adalimumab 40 mg eow, Week 24): 56 % Patients
- PASI 75 response rate (no prior use, placebo/adalimumab 40 mg eow, Week 60): 40 % Patients
- patients with PASI<50 response, qualified for dosage escalation to weekly (of the 45 patients in adalimumab eow group): 12 patients
- patients with PASI<50 response, qualified for dosage escalation to weekly (of the 47 patients in placebo/adalimumab eow group): 18 patients
- patients with PASI≧75 after dose escalation (original adalimumab 40 mg every other week arm (two out of nine), week 60): 22%
- patients with PASI≧75 after dose escalation (original placebo/adalimumab 40 mg every other week arm (two out of thirteen), week 60): 15%
- Number of Patients Who Qualified for Dosage Escalation (Week 24): 10
- Number of Patients Who Qualified for Dosage Escalation (Week 28): 2
- Number of Patients Who Qualified for Dosage Escalation (Week 32): 2
- Number of Patients Who Qualified for Dosage Escalation (Week 44): 1
- Number of Patients Who Qualified for Dosage Escalation (Week 52): 3
- Number of Patients Who Qualified for Dosage Escalation (Week 60): 0
- Overall PASI 75 response rate (placebo/adalimumab 40 mg eow, Week 24, modified ITT, NRI): 55 % of Patients
- Overall PASI 75 response rate (placebo/adalimumab 40 mg eow, Week 36, modified ITT, NRI): 62 % of Patients
- Overall PASI 75 response rate [15]: 45 % of Patients
- PASI 50 response rate [15]: 57 % Patients
- PASI 90 response rate [15]: 40 % Patients
- PASI 100 response rate [15]: 19 % Patients
- PASI 50 response (placebo/eow arm, Week 24): 77
- PASI 50 (prior biologic use): 63%
- PASI 90 (prior biologic use): 38%
- PASI 100 (prior biologic use): 13%
- PASI 75 response rate (prior biological use, 40 mg eow, Week 24): 50 % Patients
- PASI 75 response rate (prior biological use, 40 mg eow, Week 60): 63 % Patients
- PASI 75 response rate (prior biological use, 40 mg weekly, Week 24): 67 % Patients
- PASI 75 response rate (prior biological use, 40 mg weekly, Week 60): 78 % Patients
- PASI 75 response rate (prior biological use, placebo/adalimumab 40 mg eow, Week 24): 63 % Patients
- PASI 75 response rate (prior biological use, placebo/adalimumab 40 mg eow, Week 60): 63 % Patients
- PASI 75 response rate (prior systemic use, 40 mg eow, Week 24): 68 % Patients
- PASI 75 response rate (prior systemic use, 40 mg eow, Week 60): 68 % Patients
- PASI 75 response rate (prior systemic use, 40 mg weekly, Week 24): 73 % Patients
- PASI 75 response rate (prior systemic use, 40 mg weekly, Week 60): 64 % Patients
- PASI 50 (prior systemic use): 68%
- PASI 90 (prior systemic use): 37%
- PASI 100 (prior systemic use): 11%
- PASI 75 response rate (prior systemic use, placebo/adalimumab 40 mg eow, Week 24): 47 % Patients
- PASI 75 response rate (prior systemic use, placebo/adalimumab 40 mg eow, Week 60): 41 % Patients
- PASI 50 response (weekly arm, Week 24): 80
- PASI 75-99 response rate [16]: 38
- PASI 100 response rate [16]: 26

Source: patent publication US9605064B2, “Methods and compositions for treatment of skin disorders” (AbbVie Biotechnology Ltd, priority 2006, dated 2017)
